Test results published in patent US11142588B2, “Polypeptides which bind C-X-C chemokine receptor type 4 (CXCR4) and methods of treating or reducing the risk of fibrosis and cancer” (AdAlta Limited, priority 2015, dated 2021).

Legend:
[1] = Laser induced choroidal neovascularisation model; format: in vivo, mouse
Description: The laser induced choroidal neovascularisation (CNV) is a well characterised and accepted model of choroidal neovascularisation (Fletcher E L et al. (2011) Prog Mol Biol Transl Sci 100:211-286). It is also a rapid method for determining the efficacy of potential treatments that target angiogenesis and fibrosis. Briefly, up to four laser spots are applied to the posterior eye using a continuous wave photocoagulation laser ([…] diode). The laser energy is high enough to create a break in Bruch's membrane. During the following 7-14 days, growth of blood vessels from the choroid into the retina occurs, and is quantified either immuocytochemically, or using fluorescein angiography.
Mice were treated as below: • Group 1 (n=10): laser both eyes-vehicle in one eye; i-body in the other • Group 2 (n=10): Laser one eye (no i-body); other eye unlasered. • The i-body drug was injected intravitreally in 1 μl volume at a concentration up to 20 mg/ml.
The expression of genes associated with angiogenesis and fibrosis was examined. Total RNA was isolated from the retina and RPE/choroidal samples using commercial spin columns (RNeasy, Qiagen, Valencia Calif.). A PCR gene array was used to assess the expression of 84 genes involved angiogenesis or fibrosis (Qiagen). Briefly, total RNA samples from untreated, laser treated eyes and untreated fellow eyes (n=9 each group, each 25 ng) were pooled within their respective treatment groups (3 independent experiments containing 3 pooled samples), reversed transcribed (RT2 first strand, Qiagen) and then underwent pre-amplification of the cDNA target templates (RT2 pre-AMP, Qiagen). Samples were added to a commercial mastermix (RT2 SYBR green mastermix, Qiagen) and amplified for 40 cycles (ABI 7900HT, Life Technologies, Grand Island N.Y.). Three independent arrays were performed for each treatment group. The data were analysed using delata delta Ct (ΔΔCt), expressed as fold change and regulation assessed using an unpaired t-test.

CXCR4 = CXCR4 (Homo sapiens, UniProt P61073); experiment: β-arrestin BRET assay, antagonist mode with 100 nM SDF-1; format: cell-based; set-up: expressed in transfected cells; host or cells: HEK293FT; conditions: read-out: IC50 (nM) in β-Arrestin BRET assay (Antagonist mode in the presence of 100 nM SDF-1)
In short: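 Ten concentrations of i-body with 100 nM SDF-1 were applied to transiently transfected HEK293FT cells carrying CXCR4/Rluc8 donor and β-arrestin2/Venus acceptor. Emissions at 400-475 and 520-540 nm were read at 37 °C, and the vehicle-subtracted ratio gave the BRET signal (four independent duplicate experiments).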

[2] = intravitreal, 1 μl up to 20 mg/ml

CXCR4, sequence (P61073 whole entry): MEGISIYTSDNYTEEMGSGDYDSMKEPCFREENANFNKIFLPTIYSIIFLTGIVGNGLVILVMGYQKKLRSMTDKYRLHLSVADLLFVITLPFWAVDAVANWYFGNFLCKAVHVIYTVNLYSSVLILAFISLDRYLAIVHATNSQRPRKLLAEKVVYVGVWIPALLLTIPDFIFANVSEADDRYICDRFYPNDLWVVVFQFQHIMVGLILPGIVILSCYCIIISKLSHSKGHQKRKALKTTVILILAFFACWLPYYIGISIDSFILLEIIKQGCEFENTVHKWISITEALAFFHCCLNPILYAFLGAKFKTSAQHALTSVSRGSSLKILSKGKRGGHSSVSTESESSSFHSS

Molecule	pro-fibrotic gene expression in treated eyes ([1]; PCR gene array)	contraction of the lasered retinal regions [1, 2]	pathological angiogenesis / lesion size [1, 2]	IC50 (CXCR4)
AM3-114: affinity matured CXCR4 i-body, SEQ ID NO: 40	extensive down regulation of pro fibrotic genes	significant reduction in the contraction	reduction of the lesion size	–
AM3-523: affinity matured CXCR4 i-body, SEQ ID NO: 56 (protein, protein sequence encoding AM3-523) LQVDIVPSQGEISVGESKFFLCQVAGSGSHMRISWFSPNGEKLTPNQQRISVVWNDDSSSTLTIYNANIDDAGIYKCVVWVGGYRHRALVLGEATVNVKIFQ	–	–	–	12700 nM
